From ChEMBL document CHEMBL3627697, “Aminopyrazolo[1,5-a]pyrimidines as potential inhibitors of Mycobacterium tuberculosis: Structure activity relationships and ADME characterization” (Bioorg Med Chem, 2015) come the findings set out here.

Data set [1] relates to Mycobacterium tuberculosis. The data set is described as follows: Antimycobacterial activity against Mycobacterium tuberculosis H37Rv in 7H9/ADC/Tween medium measured at day 14 by Alamar Blue assay. The data set is classed as functional. The settings on record: 336 h.
The nature of data set [2]: Kinetic solubility of the compound at pH 7.4 after 2 hrs by shake flask method-based HPLC-DAD analysis. The settings on record: buffer, read-out: Kinetic_solubility. The data set is classed as physicochemical.
A short description of data set [3]: Metabolic stability in human liver microsomes assessed as compound remaining at 0.1 uM measured at 30 mins by LC-MS/MS analysis. The settings on record: read-out: Stability. The data set is classed as ADME.
Data set [4] in a line: Metabolic stability in rat liver microsomes assessed as compound remaining at 0.1 uM measured at 30 mins by LC-MS/MS analysis. The data set is classed as ADME. The settings on record: read-out: Stability. (Microsomes from liver hold many membrane-bound enzymes, among them those of drug oxidation.)
A short description of data set [5]: Metabolic stability in mouse liver microsomes assessed as compound remaining at 0.1 uM measured at 30 mins by LC-MS/MS analysis. In kind it is ADME. The settings on record: read-out: Stability.

Converted amounts (≈) assume the structure as drawn. A value given as a limit tells only on which side of the number the result lay.

For `Cc1cc(NCc2ccccn2)n2ncc(-c3ccccc3C)c2n1`, the MIC99 in data set [1] was found to be 1.25 µM (≈ 0.412 µg/mL). Further, in data set [2], the solubility kinetic at 2 h is less than 5 µM.
In the same order, the values of `Cc1cc(NCc2ccccn2)n2ncc(-c3c(C)cccc3C)c2n1` are more than 160 µM and less than 5 µM.
On to `Cc1cc(NCc2ccccn2)n2ncc(-c3ccc(F)cc3F)c2n1`, for which the MIC99 in data set [1] was more than 160 µM. Besides, in data set [2], the solubility kinetic at 2 h is less than 5 µM.
`Cc1cc(NCc2ccccn2)n2ncc(-c3cc(F)c(F)c(F)c3)c2n1` showed an MIC99 in data set [1] of 2.5 µM (≈ 0.923 µg/mL). In addition, in data set [2], the solubility kinetic at 2 h was less than 5 µM.
The compound `Cc1cc(NCc2ccccn2)n2ncc(-c3ccco3)c2n1` had an MIC99 in data set [1] of 40 µM (≈ 12.2 µg/mL). Further, the solubility kinetic at 2 h in data set [2] amounted to 48.8 µM (≈ 14.9 µg/mL).
`Cc1cc(NCc2ccccn2)n2ncc(-c3ccsc3)c2n1` had an MIC99 in data set [1] of 20 µM (≈ 6.43 µg/mL). The solubility kinetic at 2 h in data set [2] was found to be 9 µM (≈ 2.89 µg/mL).
In data set [1], `Cc1cc(NCc2ccccn2)n2ncc(-c3ccncc3)c2n1` came in with an MIC99 of more than 160 µM. The solubility kinetic at 2 h in data set [2] was found to be 161 µM (≈ 51 µg/mL).
For `Cc1cc(NCc2ccccn2)n2ncc(-c3ccn(C)n3)c2n1`, in that order: more than 160 µM and 188 µM (≈ 60 µg/mL).
In the same order, the values of `Cc1cc(NCc2ccccn2)n2ncc(-c3ccc(C(=O)Nc4ccccc4)cc3)c2n1` are more than 160 µM and 5 µM (≈ 2.17 µg/mL).
On to `Cc1cc(NCc2ccccn2)n2nc(C)c(Nc3ccccc3)c2n1`, for which the MIC99 in data set [1] was determined as 40 µM (≈ 13.8 µg/mL). Further, the solubility kinetic at 2 h in data set [2] came out at 7.8 µM (≈ 2.69 µg/mL).
`Cc1cc(NCc2ccccn2)n2ncc(C3=CCC(F)(F)CC3)c2n1`: the MIC99 in data set [1] amounted to 5 µM (≈ 1.78 µg/mL). For the same compound, the solubility kinetic at 2 h in data set [2] is 5 µM (≈ 1.78 µg/mL).
`Cc1cc(NCc2ccccn2)n2ncc(C3=CCOCC3)c2n1` had an MIC99 in data set [1] of 80 µM (≈ 25.7 µg/mL). In addition, the solubility kinetic at 2 h in data set [2] was 171 µM (≈ 54.9 µg/mL).
The compound `Cc1cc(NCc2ccccn2)n2ncc(Br)c2n1` came in with an MIC99 in data set [1] of more than 160 µM. In addition, the solubility kinetic at 2 h in data set [2] was 89.3 µM (≈ 28.4 µg/mL).
`Cc1cc(NCc2ccccn2)n2nc(C)cc2n1` showed an MIC99 in data set [1] of 5 µM (≈ 1.27 µg/mL). In addition, the solubility kinetic at 2 h in data set [2] is more than 200 µM.
As for `Cc1cc(NCC2CCCCN2)n2nc(C)c(-c3ccccc3)c2n1` (centres undefined), the MIC99 in data set [1] is more than 160 µM. The solubility kinetic at 2 h in data set [2] amounted to 189 µM (≈ 63.3 µg/mL). The values for the remaining at 0.5 h, 0.1 µM in data set [3], in data set [4] and in data set [5] were 51.8%, 5.1% and 14%, respectively.
Turning to `CCN1CCCC1CNc1cc(C)nc2c(-c3ccccc3)c(C)nn12` (centres undefined), the MIC99 in data set [1] is more than 160 µM. Moreover, the solubility kinetic at 2 h in data set [2] was found to be 172 µM (≈ 60.1 µg/mL). For the same compound, the remaining at 0.5 h, 0.1 µM in data set [3] is 54%.
With `Cc1cc(NCc2cccc[n+]2[O-])n2ncc(-c3ccccc3)c2n1`, the MIC99 in data set [1] was more than 160 µM. The solubility kinetic at 2 h in data set [2] turned out to be 159 µM (≈ 52.7 µg/mL). Also, the remaining at 0.5 h, 0.1 µM is 99.7% in data set [3], 61.2% in data set [4] and 12.3% in data set [5].
`Cc1cc(NCc2nccn2C)n2nc(C)cc2n1` came in with an MIC99 in data set [1] of more than 160 µM. In data set [2], the solubility kinetic at 2 h came to 182 µM (≈ 46.7 µg/mL). Further, the remaining at 0.5 h, 0.1 µM in data set [3] was found to be 100%; in data set [4], 80.6%; in data set [5], 85.1%.
In the same order, the values of `Cc1cc(NCc2ncnn2C)n2nc(C)c(-c3ccccc3)c2n1` are more than 160 µM, 185 µM (≈ 61.6 µg/mL), 99.5%, 68.8% and 18.9%.
`Cc1cc(NCc2ccccn2)n2ncc(-c3ccc(O)cc3)c2n1` showed an MIC99 in data set [1] of more than 160 µM. Also, the solubility kinetic at 2 h in data set [2] was determined as 10.9 µM (≈ 3.61 µg/mL). The remaining at 0.5 h, 0.1 µM in data set [3] came out at 99.3%; in data set [4], 60.1%; in data set [5], 41.4%.
As to `Cc1cc(NCc2ccccn2)n2ncc(-c3cccc(N)c3)c2n1`, the MIC99 in data set [1] is more than 160 µM. Also, in data set [2], the solubility kinetic at 2 h worked out at 160 µM (≈ 52.8 µg/mL). The remaining at 0.5 h, 0.1 µM in data set [3] turned out to be 89.5%; in data set [4], 56.8%; in data set [5] it was 55.1%.
In turn, `Cc1cc(NCc2ccccn2)n2ncc(-c3cccc(N(C)C)c3)c2n1` returned an MIC99 in data set [1] of 80 µM (≈ 28.7 µg/mL). Also, the solubility kinetic at 2 h in data set [2] was 94.6 µM (≈ 33.9 µg/mL). For the same compound, the remaining at 0.5 h, 0.1 µM in data set [3] turned out to be 33.7%; in data set [4] it was 4.5%; in data set [5], 7.9%.
`Cc1cc(NCc2ccccn2)n2ncc(-c3cncnc3)c2n1`: in data set [1], the MIC99 stood at 160 µM (≈ 50.8 µg/mL). Also, the solubility kinetic at 2 h in data set [2] came to 111 µM (≈ 35.2 µg/mL).
Turning to `Cc1cc(NCc2ccccn2)n2ncc(-c3ccc(C(=O)NCCN(C)C)cc3)c2n1`, the MIC99 in data set [1] is more than 160 µM. In addition, the solubility kinetic at 2 h in data set [2] came out at 189 µM (≈ 81.3 µg/mL).
As for `Cc1cc(NCc2ccccn2)n2nc(C)c(-c3cccnc3F)c2n1`, in data set [1], the MIC99 was found to be 10 µM (≈ 3.48 µg/mL). Also, in data set [2], the solubility kinetic at 2 h is less than 5 µM. The remaining at 0.5 h, 0.1 µM in data set [3] was 100%; in data set [4], 96.5%; in data set [5] it was 100%.
Take `Cc1cc(NCc2ccccn2)n2ncc(-c3ccc(F)cc3C)c2n1`: the MIC99 in data set [1] was more than 160 µM. In addition, the solubility kinetic at 2 h in data set [2] was found to be 42.3 µM (≈ 14.7 µg/mL).
In turn, `NC[C@H]1O[C@H](O[C@H]2[C@H](O)[C@@H](O[C@H]3O[C@H](CO)[C@@H](O)[C@H](N)[C@H]3O)[C@H](N)C[C@@H]2N)[C@H](O)[C@@H](O)[C@@H]1O` [KANAMYCIN] registered an MIC99 in data set [1] of 6.45 µM (≈ 3.13 µg/mL).
For the compound `CO[C@H]1/C=C/O[C@@]2(C)Oc3c(C)c(O)c4c(O)c(c(/C=N/N5CCN(C)CC5)c(O)c4c3C2=O)NC(=O)/C(C)=C\C=C\[C@H](C)[C@H](O)[C@@H](C)[C@@H](O)[C@@H](C)[C@H](OC(C)=O)[C@@H]1C` [RIFAMPIN], the MIC99 in data set [1] came out at 0.012 µM (≈ 0.00988 µg/mL).

Usually MIC99 stands for the lowest concentration that inhibits either 99% of growth or 99% of the strains tested, depending on the study.
